Data: patent US20060240021A1, “Mammalian genes involved in rapamycin resistance and tumorgenesis: rapr7 genes” (priority 2002, published 2006)

Test system: N2a cells
Assay: MTT proliferation assay, rapamycin mediated cell growth inhibition of N2a cells
Format: cell-based, mouse
Conditions: FIG. 7
Description: FIG. 7 illustrates sensitivity of the N2a cell line to the growth inhibitory effect of rapamycin.
In a preferred embodiment, an MTT proliferation assay (see, e.g., van de Loosdrechet, et al., 1994, J. Immunol. Methods 174: 311-320; Ohno et al., 1991, J. Immunol. Methods 145:199-203; Ferrari et al., 1990, J. Immunol. Methods 131: 165-172; Alley et al., 1988, Cancer Res. 48: 589-601; Carmichael et al., 1987, Cancer Res. 47:936-942; Gerlier et al., 1986, J. Immunol. Methods 65:55-63; Mosmann, 1983, J. Immunological Methods 65:55-63) is used to screen for a candidate agent in conjunction with rapamycin to inhibit the growth of rapamycin resistant cells. The cells are treated with chosen concentrations of the candidate agent and rapamycin for 4 to 72 hours. The cells are then incubated with a suitable amount of 3-(4,5-dimethylthiazol-2-yl)-2,5-diphenyltetrazolium bromide (MTT) for 1-8 hours such that viable cells convert MTT into an intracellular deposit of insoluble formazan. After removing the excess MTT contained in the supernatant, a suitable MTT solvent, e.g., a DMSO solution, is added to dissolved the formazan. The concentration of […], which is proportional to the number of viable cells, is then measured by determining the optical density at […]. […]

CO[C@H]1C[C@@H]2CC[C@@H](C)[C@@](O)(O2)C(=O)C(=O)N2CCCC[C@H]2C(=O)O[C@H]([C@H](C)C[C@@H]2CC[C@@H](O)[C@H](OC)C2)CC(=O)[C@H](C)/C=C(\C)[C@@H](O)[C@@H](OC)C(=O)[C@H](C)C[C@H](C)/C=C/C=C/C=C/1C [rapamycin, 9,10,12,13,14,21,22,23,24,25,26,27,32,33,34,34a-hexadecahydro-9,27-dihydroxy-3-[2-(4-hydroxy-3-methoxycyclohexyl)-1-methylethyl]-10,21-dimethoxy-6,8,12,14,20,26-hexamethyl-23,27-epoxy-3H-pyrido[2,1-c][1,4]oxaazacyclohentricontine-1,5,11,28,29(4H,6H,31H)-pentone]
rapamycin concentration at which the growth of N2a cells is completely inhibited (N2a cell line): ≥ 1 µM
rapamycin concentration at which N2a cells are sensitive to cell growth inhibition (mouse neuroblastoma N2a cells, MTT assay): 10 nM
